The nature of series [1]: Physical properties (hygroscopicity, acidity in aqueous solution). It is filed as physicochemical.
Series [2] concerns alpha-glucosidase derived from pig liver. In words: Hydrolysis using an alpha-glucosidase derived from pig liver. It is filed as biochemical. The source says:
ii) Hydrolysis using an alpha-glucosidase derived from pig liver yields 1 mole of glucose per mole of rutin.

A short description of series [3]: Stability in aqueous solution. It is filed as physicochemical. The conditions noted are these: pH 3-7, aqueous solution.
A short description of series [4]: Antioxidant activity on powdered peanut butter (peroxide value during standing at 35° C.). The procedure:
4^G -Alpha-D-glucopyranosyl rutin was tested for antioxidant activity on powdered peanut butter which is used an example of fatty food substances highly susceptive to oxidation. […] The mixture was placed in a tray, sealed, solidified by allowing it to stand at 35° C. for 1 day, and prepared into a powder which was then placed in aluminum cups and allowed to stand in a 35° C. incubator without sealing. During the standing, the contents in the aluminum cups were periodically checked for their peroxide value. […] As the control, a group with no antioxidant was tested similarly as above.

Another series concerns 7-week old dd mice. In words: Acute toxicity, oral, 7-week old dd mice.
Series [5] can be described thus: Solubility in solvents / water-solubility. It counts as physicochemical. The procedure:
Soluble in methanol and ethanol. […] One ml water dissolves about 4.3 g of the present substance at 25° C. Only 1 g rutin (control) dissolves in 8 liters of water.

The conditions of series [6]: ambient temperature, prior art; cited from earlier work.

The structures appear in SMILES notation. Values after ≈ are worked out from the molar mass of the structure shown.

The term solubility denotes the concentration that dissolves in the medium under given conditions. A high value points to a readily soluble substance. Regarding `C[C@@H]1O[C@@H](OC[C@H]2O[C@@H](Oc3c(-c4ccc(O)c(O)c4)oc4cc(O)cc(O)c4c3=O)[C@H](O)[C@@H](O)[C@@H]2O[C@H]2O[C@H](CO)[C@@H](O)[C@H](O)[C@H]2O)[C@H](O)[C@H](O)[C@H]1O` [4^G -alpha-D-glucopyranosyl rutin], the “acidity in aqueous solution” value in series [1] (aqueous solution) is given as “Neutral or slightly acidic”. In series [1] (powder, purity about 99.8%), the hygroscopicity / deliquescence result is “Non-hygroscopic and non-deliquescent”. In series [2], the “glucose yielded on enzymatic hydrolysis” value was 1 mole of glucose per mole of rutin. In series [3], the “Stability in aqueous solution” value is reported as “Superiorily stable”. In series [4] (0 days), this compound showed a peroxide value of 1.78 meq/kg. Besides, in series [4] (8 days), the peroxide value is 5.53 meq/kg. In series [4] (27 days), the peroxide value is listed as 14.6 meq/kg. The compound also yielded a peroxide value in series [4] (42 days) of 23.4 meq/kg. Moreover, in series [4] (55 days), the peroxide value stood at 32.5 meq/kg. The “acute toxicity, in words” value in the series on 7-week old dd mice (7-week old dd mice, powder of Example A-3) is “extremely low in toxicity”. Moreover, the “acute toxicity: dose up to which no mouse died” value with 7-week old dd mice (7-week old dd mice, powder of Example A-3, higher dose was difficult) is reported as > 5 g. Also, the “acute toxicity, in words” value in the series with 7-week old dd mice (dd mice, high-purity powder of Example A-4, same result as Example A-3 powder) is listed as “extremely low”. In addition, in series [5], the “Solubility in solvent: 0.1N hydrochloric acid” value was “Readily soluble”, the “Solubility in solvent: 0.1N sodium hydroxide” value is on record as “Readily soluble”, the “Solubility in solvent: acetic acid” value is reported as “Readily soluble” and the “Solubility in solvent: chloroform” value is “Hardly soluble”. In addition, in series [5], the “Solubility in solvent: ethanol” value was “Soluble”, the “Solubility in solvent: ethyl acetate” value was “Hardly soluble”, the “Solubility in solvent: methanol” value is “Soluble” and the “Solubility in solvent: water” value was “Readily soluble”. For the same compound, the “solubility improved as compared to that of rutin” value in series [5] is on record as “about thirty thousand”. For the same compound, in series [5] (water), the solubility was ~4300 mg/mL (≈ 5570 mM).

Take `C[C@@H]1O[C@@H](OC[C@H]2O[C@@H](Oc3c(-c4ccc(O)c(O)c4)oc4cc(O)cc(O)c4c3=O)[C@H](O)[C@@H](O)[C@@H]2O)[C@H](O)[C@H](O)[C@H]1O` [rutin]: in series [6], the water-solubility entry is “about 0.01 w/v %”. The “Solubility in 8 liters of water” value in series [5] (8 liters of water (control)) stood at 1 g.

The values above are taken from patent US5171573A, “4^G -alpha-D-glucopyranosyl rutin, and its preparation and uses” (Kabushiki Kaisha Hayashibara Seibutsu Kagaku Kenkyujo, priority 1989, dated 1992).
